Measured values published in ChEMBL document CHEMBL5385907, “Proline-Hinged α-Helical Peptides Sensitize Gram-Positive Antibiotics, Expanding Their Physicochemical Properties to Be Used as Gram-Negative Antibiotics” (J Med Chem, 2024).
Calls of active or inactive are those of the source. The calls are words filed in the database; no cut-off is given here. Residues, ends and D or L forms follow the SMILES beside them.

Assays:
Escherichia coli [1] = assay: Antibacterial activity against Escherichia coli ATCC 25922 assessed as inhibition of bacterial growth incubated for 18 hrs by two fold serial dilution assay; type: functional
Acinetobacter baumannii [2] = assay: Antibacterial activity against Acinetobacter baumannii ATCC 17978 assessed as inhibition of bacterial growth incubated for 18 hrs by two fold serial dilution assay; type: functional
Klebsiella pneumoniae [3] = assay: Antibacterial activity against Klebsiella pneumoniae ATCC 700603 assessed as inhibition of bacterial growth incubated for 18 hrs by two fold serial dilution assay; type: functional
[4] = Hemolytic activity in human blood assessed as hemolysis incubated for 6 hrs by microplate reader analysis; type: toxicity, tissue-based
[5] = Hydrophobicity of the compound assessed as retention time by reversed-phase HPLC analysis; type: physicochemical
Lipopolysaccharide (LPS) = assay: Displacement of BODIPY-TR-cadaverine from Escherichia coli O128:B12 LPS assessed as effective dose incubated for 1 hr by fluorescence microplate reader assay
Escherichia coli [6] = assay: Potentiation of erythromycin induced antibacterial activity against Escherichia coli ATCC 25922 assessed as decrease in bacterial growth at 0.4 uM incubated for 18 hrs in presence of erythromycin by two fold serial dilution assay; type: functional, organism-based
Escherichia coli [7] = assay: Potentiation of fusidic acid induced antibacterial activity against Escherichia coli ATCC 25922 assessed as decrease in bacterial growth at 0.4 uM incubated for 18 hrs in presence of fusidic acid by two fold serial dilution assay; type: functional, organism-based
Escherichia coli [8] = assay: Potentiation of novobiocin induced antibacterial activity against Escherichia coli ATCC 25922 assessed as decrease in bacterial growth at 0.4 uM incubated for 18 hrs in presence of novobiocin by two fold serial dilution assay; type: functional, organism-based
Acinetobacter baumannii [9] = assay: Potentiation of erythromycin induced antibacterial activity against Acinetobacter baumannii ATCC 17978 assessed as decrease in bacterial growth at 0.4 uM incubated for 18 hrs in presence of erythromycin by two fold serial dilution assay; type: functional, organism-based
Acinetobacter baumannii [10] = assay: Potentiation of fusidic acid induced antibacterial activity against Acinetobacter baumannii ATCC 17978 assessed as decrease in bacterial growth at 0.4 uM incubated for 18 hrs in presence of fusidic acid by two fold serial dilution assay; type: functional, organism-based
Acinetobacter baumannii [11] = assay: Potentiation of novobiocin induced antibacterial activity against Acinetobacter baumannii ATCC 17978 assessed as decrease in bacterial growth at 0.4 uM incubated for 18 hrs in presence of novobiocin by two fold serial dilution assay; type: functional, organism-based
Klebsiella pneumoniae [12] = assay: Potentiation of erythromycin induced antibacterial activity against Klebsiella pneumoniae ATCC 700603 assessed as decrease in bacterial growth at 0.4 uM incubated for 18 hrs in presence of erythromycin by two fold serial dilution assay; type: functional, organism-based
Klebsiella pneumoniae [13] = assay: Potentiation of fusidic acid induced antibacterial activity against Klebsiella pneumoniae ATCC 700603 assessed as decrease in bacterial growth at 0.4 uM incubated for 18 hrs in presence of fusidic acid by two fold serial dilution assay; type: functional, organism-based
Klebsiella pneumoniae [14] = assay: Potentiation of novobiocin induced antibacterial activity against Klebsiella pneumoniae ATCC 700603 assessed as decrease in bacterial growth at 0.4 uM incubated for 18 hrs in presence of novobiocin by two fold serial dilution assay; type: functional, organism-based
Escherichia coli [15] = assay: Potentiation of rifampicin induced antibacterial activity against NDM1-producing carbapenem-resistant Escherichia coli infected CD1 mouse sepsis model assessed as reduction in bacterial colony forming unit in blood at 10 mg/kg,SC administrated after 2 hrs of post-infection in presence of rifampicin; type: functional
Escherichia coli [16] = assay: Potentiation of rifampicin induced antibacterial activity against NDM1-producing carbapenem-resistant Escherichia coli infected CD1 mouse sepsis model assessed as reduction in bacterial colony forming unit in blood at 10 mg/kg,SC administrated after 6 hrs of post-infection in presence of rifampicin; type: functional
[17] = Nephrotoxicity in Sprague-Dawley rat assessed as increase in blood urea nitrogen level at 30 mg/kg,iv administration for 1 hr and measured after 25 hrs; type: toxicity, organism-based; conditions: in vivo, 26 h
[18] = Nephrotoxicity in Sprague-Dawley rat assessed as increase in creatinine level at 30 mg/kg,iv administration for 1 hr and measured after 25 hrs; type: toxicity, organism-based; conditions: in vivo, 26 h
Escherichia coli [19] = assay: Antibacterial activity against Escherichia coli ATCC 25922 assessed as change in membrane fluidity incubated for 1 hr by generalized polarization assay; type: functional, organism-based
Escherichia coli [20] = assay: Antibacterial activity against Escherichia coli ATCC 25922 assessed as bacterial growth inhibition incubated for 1 hr by propidium iodide staining based fluorescence assay; type: functional, organism-based

| Molecule | MIC (Escherichia coli [1]) | MIC (Acinetobacter baumannii [2]) | MIC (Klebsiella pneumoniae [3]) | MHC10 [4] | Retention_time [5] | Activity (Escherichia coli [6]) | Activity (Escherichia coli [7]) | Activity (Escherichia coli [8]) | Activity (Acinetobacter baumannii [9]) | Activity (Acinetobacter baumannii [10]) | Activity (Acinetobacter baumannii [11]) | Activity (Klebsiella pneumoniae [12]) | Activity (Klebsiella pneumoniae [13]) | Activity (Klebsiella pneumoniae [14]) | also measured |
| --- | --- | --- | --- | --- | --- | --- | --- | --- | --- | --- | --- | --- | --- | --- | --- |
| CCCCCCCC(=O)N[C@@H](CCCCN)C(=O)N[C@@H](CCCCN)C(=O)N[C@@H](C)C(=O)N[C@@H](C)C(=O)N[C@@H](CCCCN)C(=O)N[C@@H](C)C(=O)N[C@@H](C)C(=O)N[C@@H](CCCCN)C(=O)N[C@@H](CCCCN)C(=O)N1CCC[C@H]1C(=O)N[C@@H](C)C(=O)N[C@@H](CCCCN)C(=O)N[C@@H](C)C(=O)N[C@@H](C)C(=O)N[C@@H](CCCCN)C(N)=O (HELM PEPTIDE1{[CCCCCCCC(=O)[*:2]].K.K.A.A.K.A.A.K.K.P.A.K.A.A.K.[am]}$$$$V2.0) | > 80 µM | > 80 µM | > 80 µM | > 160 µM | 13.7 min | – | – | – | – | – | – | – | – | – | ED50 (Lipopolysaccharide (LPS)): inactive |
| Ac-KKLLALLKKPLKLLK-NH2 | 80 µM | 20 µM | 80 µM | > 160 µM | 19.4 min | Active | Active | Active | Active | Active | Active | Active | Active | Active | – |
| Ac-KKLLKLAKKPLKLLK-NH2 | > 80 µM | > 80 µM | > 80 µM | > 160 µM | 16.8 min | Active | Active | Active | Active | Active | Active | Active | Active | Active | – |
| Ac-KKLLKLLAKPLKLLK-NH2 | > 80 µM | 40 µM | > 80 µM | > 160 µM | 19.6 min | Active | Active | Active | Active | Active | Active | Active | Active | Active | – |
| Ac-KKLLKLLKAPLKLLK-NH2 | > 80 µM | 20 µM | > 80 µM | > 160 µM | 19.6 min | Active | Active | Active | Active | Active | Active | Active | Active | Active | – |
| Ac-KKLLKLLKKPAKLLK-NH2 | > 80 µM | 80 µM | > 80 µM | > 160 µM | 17.1 min | Active | Active | Active | Active | Active | Active | Active | Active | Active | – |
| Ac-KKLLKLLKKPLALLK-NH2 | > 80 µM | 20 µM | > 80 µM | > 160 µM | 19.6 min | Active | Active | Active | Active | Active | Active | Active | Active | Active | – |
| Ac-KKLLKLLKKPLKALK-NH2 | > 80 µM | 40 µM | > 80 µM | > 160 µM | 17.5 min | Active | Active | Active | Active | Active | Active | Active | Active | Active | – |
| Ac-KKLLKLLKKPLKLAK-NH2 | > 80 µM | 80 µM | > 80 µM | > 160 µM | 17.1 min | Active | Active | Active | Active | Active | Active | Active | Active | Active | – |
| Ac-KKLLKLLKKPLKLLA-NH2 | > 80 µM | 2.5 µM | > 80 µM | > 160 µM | 18.9 min | Active | Active | Active | Active | Active | Active | Active | Active | Active | – |
| Ac-KLLKLLKKPLKLLK-NH2 | > 80 µM | 80 µM | > 80 µM | > 160 µM | 18.8 min | – | – | – | – | – | – | – | – | – | Activity (Escherichia coli [15]): >3 log10CFU; Activity (Escherichia coli [16]): >3 log10CFU |
| COLISTIN | – | – | – | – | – | – | – | – | – | – | – | – | – | – | Activity [17]: 30 mg/dL; Activity [18]: 0.74 mg/dL |
| POLYMYXIN B | – | – | – | – | – | – | – | – | – | – | – | – | – | – | Activity (Escherichia coli [19]): Active; Activity (Escherichia coli [20]): Active |
